We go through two molecules from publication PMC7279038, “Antioxidant and Neuroprotective Effects Induced by Cannabidiol and Cannabigerol in Rat CTX-TNA2 Astrocytes and Isolated Cortexes” (International Journal of Molecular Sciences, 2020).

Molecules are shown by their SMILES.

The nature of test [1]: DPPH scavenging ability test. Conditions: mean ± S.D., n = 3. How it is done:
For the 1,1-diphenyl-2-picrylhydrazyl (DPPH) radical scavenging assay, sample solution was added to 4 mL of a 0.004% methanol solution of DPPH. The sample absorbance was read at 517 nm after a 30 min incubation at room temperature in the dark. DPPH radical scavenging activity was expressed as IC50 values.
Background: Loss of DPPH colour is used to gauge radical scavenging.

The test system of test [2] is CTX-TNA2 astrocyte cell line. Put plainly: ROS production by flow cytometry. It counts as cell-based, rat. The following applies: challenged with 300 µM H2O2; 1000 nM CBD, 1 nM CBG; 24 and 48 h. The protocol: The CTX-TNA2 rat astrocytes were purchased from the European Collection of Cell Cultures (ECACC), Sigma-Aldrich, Milan, Italy, and cultured as already indicated. Cells were grown in Dulbecco’s Modified Eagle Medium supplemented with 10% of FBS and penicillin–streptomycin (100 µgmL^−1) (all from EuroClone SpA Life-Sciences-Division, Milan, Italy) and maintained in a humified atmosphere of 5% CO2 at 37 °C. Cells were subcultivated at a ratio of 1.2 to 1.8 and the medium was changed every 3 days. CTX-TNA2 astrocytes were plated in 25 or 75 cm^2 flasks, according to experimental needing and cells between the eight and the 15 passage were used.
When indicated, the cells were treated with H2O2 300 µM for three hours and different concentrations of CBD (1–1000 nM) and CBG (1–1000 nM). […]
Reactive oxygen species (ROS) production was determined as already reported by monitoring by flow cytometry the increase in green fluorescence after labeling the cells (5 × 10^5) with 5 μmolL^−1 of 5-(and-6)-chloromethyl-2′,7′-dichlorodihydrofluorescein diacetate, acetyl ester (CM-H2DCFDA, Molecular Probes, Invitrogen, Life-Sciences-Division, Milano, Italy) for 40 min followed by 20 min of recovery at 37 °C. The increase in green fluorescence, indicating the production of ROS, was detected by a Cytoflex flow cytometer with an FL1 detector in a log mode (Beckmann Coulter, FL, USA). […]
(In flow cytometry, cells or beads pass a laser one at a time.)

Test [3] has as its system isolated rat prefrontal cortex, nitrite. Put plainly: H2O2-induced nitrite level in isolated cortexes (Griess assay). The following applies: hydrogen peroxide 300 µM; for inhibition of H2O2-induced increase in nitrite level: 1–1000 nM. The protocol:
Sprague–Dawley rats (200–250 g) were sacrificed by CO2 inhalation and isolated prefrontal cortex specimens were immediately explanted and exposed to 300 µM H2O2 and different concentrations of CBD (1–1000 nM) and CBG (1–1000 nM) for one hour, at 37 °C. The nitrite concentration in the resuspension buffer was determined by colorimetric Griess assay. Specifically, cortex specimens were homogenized for 2 min with Potter–Elvehjem homogenizer in 2 mL DMEM buffer. The homogenate was centrifuged at 4500 g for 10 min and nitrite production was determined in the supernatant fraction by mixing 50 µL of the assay buffer with 50 µL of Griess reagent (1.5% sulfanilamide in 1M HCl plus 0.15% N-(1-naphthyl) ethylenediamine dihydrochloride in distilled water, v/v). After 10 min incubation at room temperature, the absorbance at 540 nm was determined and nitrite concentrations were calculated from a sodium nitrite standard curve. All measurements were performed in triplicate.
(In general: The Griess reaction detects nitrite, a stable product of nitric oxide.)

The test system of test [4] is isolated rat cortexes, 3-HK. The test can be described thus: K+ 60 mM neurotoxicity paradigm, 3-HK level. The following applies: for effect on K+ 60 mM-induced increase in 3-HK level: CBD 1000 nM, CBG 1 nM. The protocol:
Sprague–Dawley rats (200–250 g) were sacrificed by CO2 inhalation (Italian Health Ministry authorization N. F4738.N.XTQ, delivered on 11th November 2018) and isolated prefrontal cortex specimens were immediately explanted and incubated in thermostatic shaking bath at 37 °C for 1 h (incubation period), in Krebs–Ringer buffer at the following K^+ concentrations:
Cortexes were stimulated with CBD (1000 nM) and […]. Afterwards, specimens were homogenized in perchloric acid solution (0.05 M) for the extraction and quantification of nitrites, via the aforementioned colorimetric Griess assay, and serotonin (5-HT), 5-hydroxyindoleacetic (5HIIA),3-hydroxykinurenine (3-HK) and kinurenic acid (KA) (ng/mg wet tissue) via high performance liquid chromatography analysis. Additionally, an untargeted proteomic analysis was carried out on the cortex homogenate. The analytical protocols for 5-HT, 5HIIA, 3-HK, KA and protein level determinations are described below. The analyses were conducted in triplicate and in independent facilities with blind modality.
Tissue 3-HK, 5-HT and 5HIIA levels were analyzed through an HPLC apparatus consisting of a Jasco (Tokyo, Japan) PU-2080 chromatographic pump and an ESA (Chelmsford, MA, USA) Coulochem III coulometric detector, equipped with a microdialysis cell (ESA-5014b), a porous graphite working electrode and a solid state palladium reference electrode. The analytical conditions for identification and quantification were selected according to previous studies. Specifically, the analytical cell was set at −0.150 V for detector 1 and at +0.300 V for detector 2, with a range of 100 nA. The chromatograms were monitored at the analytical detector 2. […] Sample concentrations were calculated by linear regression curve (y = bx + m) obtained with standard. Neither internal nor external standards were necessary for analyte quantification in the cortex homogenate, and all tests performed for method validation and yielded results in accordance with limits indicated in official guidelines for applicability in laboratory trials. […]

In the next test the test system is hypothalamic 5-HT. More on the design: method as in PMID 31941059. The following applies: cited from earlier work.
The test system of another test is rat hypothalamic neurons. More on the design: method as in PMID 31941059. The following applies: ex vivo model, hydrogen peroxide; cited from earlier work.

A word on the IC50: it is the midpoint of a concentration-inhibition curve. A lower IC50 goes with greater potency. In test [1], `C=C(C)[C@@H]1CCC(C)=C[C@H]1c1c(O)cc(CCCCC)cc1O` [CBD, Cannabidiol] came in with an IC50 of 1.87 ± 0.04 mM. Besides, the ROS production result in test [2] was “reduction in ROS production”. Besides, in test [3], the “inhibition of H2O2-induced increase in nitrite level” value is “inhibit such an increase at all the tested concentrations”. For the same molecule, in test [4], the “effect on K+ 60 mM-induced increase in 3-HK level” value is recorded as “successful in blunting”. For the same molecule, the “basal hypothalamic 5-HT levels” value in the test on hypothalamic 5-HT is “stimulate basal hypothalamic 5-HT levels”.

`CCCCCc1cc(O)c(C/C=C(\C)CCC=C(C)C)c(O)c1` [CBG, cannabigerol] displayed a half-maximal inhibitory concentration (IC50) in test [1] of 1.95 ± 0.01 mM. The ROS production entry in test [2] was “reduction in ROS production”. Also, the “inhibition of H2O2-induced increase in nitrite level” value in test [3] is listed as “significant at the two lowest tested concentrations only”. In test [3] (tested 1–1000 nM), the “concentration of maximal inhibition of nitrite production” value came out at 1 nM. The “effect on K+ 60 mM-induced increase in 3-HK level” value in test [4] is given as “completely ineffective”. Besides, the 3-HK level entry in test [4] (basal conditions only) is reported as “reduce 3-HK”. Moreover, the neuroprotection entry in the test on rat hypothalamic neurons is “neuroprotection only at low concentrations”.
